According to ChEMBL document CHEMBL3886714, “Substituted 4-pyridones and their use as inhibitors of neutrophil elastase activity” (2016):

Biological target: T1, Neutrophil elastase (Homo sapiens, UniProt P08246)
T1 sequence (P08246 whole entry): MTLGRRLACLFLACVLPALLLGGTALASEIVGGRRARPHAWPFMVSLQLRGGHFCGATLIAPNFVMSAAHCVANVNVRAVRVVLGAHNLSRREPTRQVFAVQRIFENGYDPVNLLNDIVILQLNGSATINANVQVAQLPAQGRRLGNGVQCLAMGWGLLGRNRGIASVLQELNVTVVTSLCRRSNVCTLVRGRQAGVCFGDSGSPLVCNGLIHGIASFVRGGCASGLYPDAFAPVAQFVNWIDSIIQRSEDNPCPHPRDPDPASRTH
Test: Human Neutrophil Elastase Assay: Compound buffer: 100 mM Tris, 500 mM NaCl, adjusted to pH 7.5; Assay buffer: 100 mM Tris, 500 mM NaCl, adjusted to pH 7.5, containing 0.01% BSA. Test compounds were prediluted in DMSO and subsequently in compound buffer (5% DMSO final). […] After inactivation of the enzyme, fluorescence intensities were measured at 380 nm excitation and 460 nm emission wavelengths.

| Compound | IC50 |
| --- | --- |
| Cc1c(-c2cccc(C(F)F)c2)c(=O)c(C(=O)NCc2ccc(S(C)(=O)=O)cc2)cn1C1CCOC1 (configuration not stated) | 0.027 µM |
| Cc1c(-c2cccc(C(F)(F)F)c2)c(=O)c(C(=O)NCc2ccc(S(C)(=O)=O)s2)cn1C(C)C | 0.028 µM |
